Measured values taken from ChEMBL document CHEMBL4118050, “Gardenifolins A-H, Scalemic Neolignans from Gardenia ternifolia: Chiral Resolution, Configurational Assignment, and Cytotoxic Activities against the HeLa Cancer Cell Line” (J Nat Prod, 2017).
The source made the active and inactive calls. The rule behind the calls is not given here.

What was measured:
Assay type in all cases: functional, cell-based
HeLa [1] = test: Cytotoxicity against human HeLa cells assessed as reduction in cell viability after 72 hrs by WST8 assay
HeLa [2] = test: Induction of apoptosis in human HeLa cells assessed as loss of cytoplasmic and nuclear integrity at 25 uM after 72 hrs by acridine orange/Hoechst 33342 staining based microscopic method
HeLa [3] = test: Induction of apoptosis in human HeLa cells assessed as nuclear fragmentation at 25 uM after 72 hrs by acridine orange/Hoechst 33342 staining based microscopic method

| Structure (SMILES) | IC50 (HeLa [1]) [µM] | Activity (HeLa [2]) | Activity (HeLa [3]) |
| --- | --- | --- | --- |
| COC(=O)/C=C\c1cc(OC)c2c(c1)[C@@H](CO)[C@@H](c1ccc(O)c(OC)c1)O2 | 32.5 | – | – |
| COC(=O)/C=C\c1cc(OC)c2c(c1)[C@@H](CO)[C@H](c1ccc(O)c(OC)c1)O2 | 87.3 | – | – |
| COC(=O)/C=C/c1cc(OC)c2c(c1)[C@H](CO)[C@H](c1ccc(O)c(OC)c1)O2 | 96.1 | – | – |
| COC(=O)/C=C\c1cc(OC)c2c(c1)[C@H](CO)[C@@H](c1ccc(O)c(OC)c1)O2 | 78.8 | – | – |
| COC(=O)/C=C/c1cc(OC)c2c(c1)[C@H](CO)[C@@H](c1ccc(O)c(OC)c1)O2 | 90 | – | – |
| COC(=O)/C=C\c1cc(OC)c2c(c1)[C@H](CO)[C@H](c1ccc(O)c(OC)c1)O2 | 103 | – | – |
| COC(=O)/C=C/c1cc(OC)c2c(c1)[C@@H](CO)[C@H](c1ccc(O)c(OC)c1)O2 | 21 | Active | Active |
| O=c1[nH]cc(F)c(=O)[nH]1 [FLUOROURACIL] | 13.9 | – | – |
| COC(=O)/C=C/c1cc(OC)c2c(c1)[C@@H](CO)[C@@H](c1ccc(O)c(OC)c1)O2 | 105 | – | – |
